The source of these data is patent publication US20180258381A1, “BIO-LAMINA BIOREACTORS AND METHODS OF MAKING AND USING THE SAME” (Oregon State University, priority 2015, published 2018).

In one assay the target is T1, sMMO (Methylosinus trichosporium, UniProt P27353).
T1 construct: endogenous in cells; host or cells: M. trichosporium OB3b whole cells, grown without copper (chemostat or batch)
T1 sequence (P27353 1-526): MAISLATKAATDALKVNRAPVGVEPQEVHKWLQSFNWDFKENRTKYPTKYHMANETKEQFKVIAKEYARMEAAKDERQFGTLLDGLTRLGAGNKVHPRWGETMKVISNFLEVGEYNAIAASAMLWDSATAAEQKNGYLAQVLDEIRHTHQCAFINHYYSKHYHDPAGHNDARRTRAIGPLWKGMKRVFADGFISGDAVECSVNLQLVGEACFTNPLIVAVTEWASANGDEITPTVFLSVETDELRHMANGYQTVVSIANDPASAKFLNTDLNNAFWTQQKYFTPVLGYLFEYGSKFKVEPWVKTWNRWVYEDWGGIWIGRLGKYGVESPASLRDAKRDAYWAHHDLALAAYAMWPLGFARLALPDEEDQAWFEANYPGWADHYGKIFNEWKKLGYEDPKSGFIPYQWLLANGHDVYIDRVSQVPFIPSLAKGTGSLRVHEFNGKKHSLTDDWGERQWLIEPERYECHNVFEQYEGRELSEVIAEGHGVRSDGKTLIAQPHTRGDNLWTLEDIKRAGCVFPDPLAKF
T1 sequence (P27354 1-394 partner): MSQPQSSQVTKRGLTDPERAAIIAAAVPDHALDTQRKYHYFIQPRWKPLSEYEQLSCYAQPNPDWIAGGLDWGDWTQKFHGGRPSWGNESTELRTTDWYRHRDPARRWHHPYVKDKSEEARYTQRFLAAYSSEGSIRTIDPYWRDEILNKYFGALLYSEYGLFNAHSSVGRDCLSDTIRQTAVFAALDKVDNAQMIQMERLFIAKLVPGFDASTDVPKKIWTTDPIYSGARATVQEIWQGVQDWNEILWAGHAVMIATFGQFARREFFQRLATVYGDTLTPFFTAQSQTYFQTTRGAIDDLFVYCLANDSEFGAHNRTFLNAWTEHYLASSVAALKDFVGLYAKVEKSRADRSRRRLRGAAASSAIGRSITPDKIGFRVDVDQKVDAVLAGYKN
T1 sequence (P27355 1-169 partner): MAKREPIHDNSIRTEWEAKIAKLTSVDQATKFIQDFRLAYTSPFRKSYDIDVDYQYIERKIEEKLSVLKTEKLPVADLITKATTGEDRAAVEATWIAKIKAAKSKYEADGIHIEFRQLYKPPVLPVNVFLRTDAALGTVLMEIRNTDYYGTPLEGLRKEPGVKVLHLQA
The assay is described as follows: sMMO activity reactivity assay, inhibitor trials. The class given is cell-based, M. trichosporium OB3b. How it is done: M. trichosporium OB3b cultures were grown under plus copper (pMMO expressed) or minus copper (sMMO expressed) conditions using chemostat or batch culture conditions. Aliquots of culture (˜100 ml) were harvested by centrifugation, and concentrated 50-fold in fresh media. Pelleting cells in this manner ensured that all residual methane was eliminated, increased ease of measuring protein, and made activity assays as brief as possible. Assays were performed in 30 ml crimp cap reaction vials with 4 ml of media (either +Cu or −Cu) with 10 mM sodium formate. To initiate assays, 100 µl of the 50× cell suspension was added to reaction vials with a plastic syringe. Short descriptions of activity assays follow.
Due to the relative insolubility of methane, large volumes should be added to reaction vials to achieve concentrations in the aqueous phase (Cw) above the concentration of methane where the velocity of methane consumption (V) is equal to 0.5Vmax for minus copper grown M. trichosporium OB3b cultures. These large methane additions make direct measurement of methane consumption in short-term assays unlikely, therefore the accumulation of ethylene oxide (ETO) upon the oxidation of ethylene (ETH) was used as a surrogate measurement. Reaction vials were prepared as described above and 5 ml of ETH added as an overpressure. The appearance of ETO was monitored by gas chromatography evaluation of Cw over the course of 30 minutes (FIG. 39A). Killed cells (boiled) served as a negative control. pMMO is a copper enzyme and can be inhibited by allylthiourea (ATU), while sMMO (an iron enzyme) is insensitive to inhibition by ATU. The ETH to ETO assay described above was repeated with 10 μM ATU to discriminate between sMMO and pMMO activity.
(§1) Metabolic activity test methods have been developed to monitor specific activities in M. trichosporium OB3b cultures. A naphthalene oxidation assay was used to determine if sMMO is being expressed. An ethylene to ethylene oxide reaction assay and a methane oxidation assay was used to quantify MMO activity, and a methanol oxidation assay was used to estimate MDH activity. Concurrent batch metabolic tests can be conducted to investigate methanol inhibition of methane oxidation, cyclopropane to cyclopropanol conversion and concurrent/subsequent cyclopropanol inhibition of MDH activity, the effect of cyclopropanol inhibition on growth yield, and the effects of high oxygen concentration. Once stable operation and baseline metabolic monitoring in the chemostat have been achieved, inhibitor can be added to evaluate chemostat operation under methanol-producing conditions.
MMO activity has been measured via both methane (CH4) consumption and ethylene oxide (ETO) production upon oxidation of the non-growth substrate ethylene (ETH, Table 4). While ETO production matches methane consumption for pMMO, ETH is not as good a substrate for sMMO as methane. Nevertheless, the ETO accumulation assay is quick (<30 min) and can be used to screen for activity before starting a larger experiment.
(§2) The effect of salts NaCl, NH4Cl and CaCl2 on MMO and MDH activity was evaluated using the reactivity assays described above.

A further assay concerns MDH. Kind of assay: MDH activity reactivity assay (methanol SOUR), inhibitor trials. The class given is cell-based, M. trichosporium OB3b. As to the method: The procedure for measuring methanol dehydrogenase (MDH) activity by measuring the specific oxygen uptake rate (SOUR) has been tested on M. trichosporium OB3b cultures grown both in batch and in the chemostat. M. trichosporium OB3b cells were harvested using centrifugation. The supernatant was poured off and the cells were re-suspended in fresh media lacking a carbon source. Phosphate buffer solution was added to a sample chamber in which dissolved oxygen (DO) was measure with a DO probe. When the DO of the solution stabilized, the re-suspended cells were added to the sample chamber to measure baseline oxygen uptake by the cells without a carbon food source present. Methanol was then added to test for MDH activity. The difference in the oxygen uptake rates illustrates the MDH activity of the culture.
as §1, with “concentration.” for “concentration. Once stable operation and baseline metabolic monitoring in the chemostat have been achieved, inhibitor can be added to evaluate chemostat operation under methanol-producing conditions.”
as §2

`C1CC1` [CP, cyclopropane]: the “Fraction of Activity Remaining, sMMO” value is on record as 0.9 on sMMO (CP 03 μmol), 0.9 on sMMO (CP 32 μmol) and 0.8 at sMMO (CP 64 μmol). For the same compound, the “Fraction of Activity Remaining, MDH” value is on record as 0.9 in the assay with MDH (CP 03 μmol), 0.2 in the assay with MDH (CP 32 μmol) and 0.1 in the assay on MDH (CP 64 μmol).
